Measured values as given in patent publication US11713305B2, “Zinc sensors for in vivo imaging of beta-cell function by MRI” (The Board of Regents of the University of Texas System, priority 2017, dated 2023).

How the values were obtained:
[1] = GdL-Zn dissociation constants by fluorescence (ZnAF-2F competition); assay type: binding; conditions: K2 in FIG. 4; Tris buffer; read-out: KD(GdLZn)
Procedure: The procedures reported by Esqueda et al were followed (Esqueda et al., 2009). Solutions containing 1 μM of ZnAF-2F, 0.05 μM ZnCl2 and 100 μM GdL sensors were prepared in TRIS buffer. Aliquots of this solution were 3-fold diluted serially 10 times by addition of a buffered solution containing the same concentration of ZnAF-2F and ZnCl2 but no agent. The fluorescence was measured in triplicate in 96 well plates (100 μL). In a similar manner solutions containing agent, ZnCl2 but no fluorescent probe, were prepared and fluorescence measured by triplicate to account for any signal coming from the agent interacting with Zn^2+. The excitation and emission wavelengths used were 492 and 514 nm, respectively. The Zn dissociation constant was determined by fitting the data to the following equations:
[formula] F is the measured corrected fluorescence. Fmin is the minimal fluorescence observed in the competition binding experiment. Fmax corresponds to the fluorescence in absence of competitor. [GdL]o is the concentration of the zinc sensor chosen. IC50 corresponds to the concentration of competitor that decreases by 50% the % F. K′D is the dissociation constant of the competitor. [FP]o is the total concentration of the fluorescent probe. KD is the dissociation constant of the fluorescent probe and Zn^2+.

[2] = 17O NMR of DyL4 without and with HSA; assay type: physicochemical; conditions: no HSA
Procedure: To gain more insights into this process, further ^17O NMR experiments performed using DyL4 in the presence of 0.6 mM HSA (Dy^3+ was substituted for Gd^3+ for improved fitting purposes, FIGS. 2 and 3 and Table 4).
^17O NMR experiments were performed at 9.4 T on a Bruker AVANCE III NMR spectrometer. The temperature was regulated by air flow controlled by a Bruker VT unit. The samples ([Gd^3+]=25 mM; [Dy^3+]=1 mM) were prepared in ^17O enriched water (10%) with the pH being maintained at 7.4 with 100 mM Tris buffer. The sample was loaded into a 18 μL spherical bulb (Wilmad-Lab Glass, Vineland, NJ) and placed inside a 5 mm NMR tube containing 400 μL of water to eliminate any susceptibility effects. Longitudinal relaxation rates (1/T1) were obtained by the inversion recovery method and transverse relaxation rates (1/T2) were obtained by the Carr-Purcell—Meiboom—Gill spin echo technique. The acidified water (pH=3.0) containing 10% enriched ^17O water was used as a reference for the measurements. For the DyL4 complexes (no HSA and with HSA+Zinc), acidified water solutions and 1 mM LaL4+3 mM HSA with zinc (1:1) were used as the corresponding references. The corresponding fittings were performed with the Scientist 3.0 software (Micromath®).
With Dy^3+ solutions the correlation time for dipolar relaxation is governed by the electron spin relaxation time Te which is much shorter than Tm and τR. For this reason, ^17O transversal relaxation rates predominantly originates from Curie spin relaxation (Caravan et al., 2001; Karimi and Helm, 2016). The Curie relaxation is described by Fries (Vigouroux et al., 1999) and simplified by the Swift-Connick equations (Swift and Connick, 1962): […]
The water exchange rates kex and the chemical shift differences (inner-sphere water and bulk water) Δωm can be expressed as: […]
C1 and C2 are empirical constants described by Lewis and Bleaney (1972), and represent the relative contributions of the contact and pseudocontact terms. B is the external magnetic field.

## O=C(O)CN1CCN(CC(=O)O)CCN(CC(=O)NCCN(CCc2ccccn2)Cc2ccccn2)CCN(CC(=O)O)CC1 [GdL4]
[1]
  Kd: 2350 nM

## O=C(O)CN1CCN(CCC(=O)NCCN(CCc2ccccn2)Cc2ccccn2)CCN(CC(=O)O)CCN(CC(=O)O)CC1 [GdL5]
[1]
  Kd: 2570 ± 54 nM

## O=C(O)CN1CCN(CC(=O)O)CCN(CC(=O)NCCN(Cc2ccccn2)Cc2ccccn2)CCN(CC(=O)O)CC1 [GdL1]
[1]
  Kd: 118 nM

## O=C(O)CN1CCN(CCC(=O)NCCN(Cc2ccccn2)Cc2ccccn2)CCN(CC(=O)O)CCN(CC(=O)O)CC1 [GdL2]
[1]
  Kd: 190 ± 5 nM
[2]
  1/T2m^298: 600 ± 20 10^4 s^−1
  A1: −73 ± 2 10^6rad s^−1K T^−1
  A2: 0.3 ± 0.1 10^9rad s^−1K^2 T^−1
  ER: 9.56 ± 2.39 kcal/mol
  ΔH^‡: 9.87 ± 0.12 kcal/mol
[2]; 17O enriched water, TRIS buffered
  kex^298: 4.3 ± 0.1 10^6 s^−1

## O=C(O)CCN1CCN(CC(=O)O)CCN(CC(=O)NCCN(Cc2ccccn2)Cc2ccccn2)CCN(CC(=O)O)CC1 [GdL3]
[1]
  Kd: 185 ± 5 nM
